Laboratory results published in patent publication US9849130B2 (KamTek, Inc., priority 2014, dated 2017).
≈ marks a conversion by molar mass, not a printed value. Like-named read-outs stand apart in the source and are kept apart here. Each block holds one compound with its values, some of them ahead of it.

Tests used:
Enterococci faecium = assay: MIC by microdilution in Mueller-Hinton broth against Enterococci faecium strains; assay type: cell-based, Enterococcus faecium; conditions: Enterococcus faecium, Mueller-Hinton broth, read-out: MIC
Enterococcus faecalis = assay: MIC by microdilution in Mueller-Hinton broth against Enterococcus faecalis strains; assay type: cell-based; conditions: Enterococcus faecalis
Escherichia coli strains = assay: MIC by microdilution in Mueller-Hinton broth against Escherichia coli strains; assay type: cell-based; conditions: Escherichia coli, Mueller-Hinton broth, read-out: MIC
[1] = tested on: Staphylococcus aureus strains; assay: MIC by microdilution in Mueller-Hinton broth against Staphylococcus aureus strains; assay type: cell-based; conditions: Staphylococcus aureus
[2] = E. faecalis NR 31884, read-out: MIC
[3] = E. faecalis NR 31885, read-out: MIC
[4] = E. faecalis NR 31886, read-out: MIC
[5] = E. faecalis NR 31887, read-out: MIC
[6] = E. faecalis NR 31888, read-out: MIC
[7] = Escherichia coli strain NR 17626
[8] = Escherichia coli strain NR 17627
[9] = Escherichia coli strain NR 17633
[10] = Escherichia coli strain NR 17647
[11] = Escherichia coli strain NR 17650
[12] = Escherichia coli strain NR 17661
[13] = S. aureus NR 10129, read-out: MIC
[14] = S. aureus NR 10186, read-out: MIC
[15] = S. aureus NR 10187, read-out: MIC
[16] = S. aureus NR 10188, read-out: MIC
[17] = S. aureus NR 10189, read-out: MIC
[18] = S. aureus NR 10191, read-out: MIC
[19] = S. aureus NR 10192, read-out: MIC
[20] = S. aureus NR 10193, read-out: MIC
[21] = S. aureus NR 10194, read-out: MIC
[22] = S. aureus NR 10198, read-out: MIC
[23] = Staphylococcus aureus strain NR 10129, read-out: MIC
[24] = Staphylococcus aureus strain NR 10186, read-out: MIC
[25] = Staphylococcus aureus strain NR 10187, read-out: MIC
[26] = Staphylococcus aureus strain NR 10188, read-out: MIC
[27] = Staphylococcus aureus strain NR 10189, read-out: MIC
[28] = Staphylococcus aureus strain NR 10191, read-out: MIC
[29] = Staphylococcus aureus strain NR 10192, read-out: MIC
[30] = Staphylococcus aureus strain NR 10193, read-out: MIC
[31] = Staphylococcus aureus strain NR 10194, read-out: MIC
[32] = Staphylococcus aureus strain NR 10198, read-out: MIC

MIC (Enterococci faecium; E. faecium NR 31903): > 32 µg/mL | MIC (Enterococci faecium; E. faecium NR 31909): > 32 µg/mL | MIC (Enterococci faecium; E. faecium NR 31912): > 32 µg/mL | MIC (Enterococci faecium; E. faecium NR 31915): 2 µg/mL (≈ 5.72 µM) | MIC (Enterococci faecium; E. faecium NR 31916): > 32 µg/mL | MIC (Enterococcus faecalis; [2]): 4 µg/mL (≈ 11.4 µM) | MIC (Enterococcus faecalis; [3]): 4 µg/mL (≈ 11.4 µM) | MIC (Enterococcus faecalis; [4]): 4 µg/mL (≈ 11.4 µM) | MIC (Enterococcus faecalis; [5]): 0.5 µg/mL (≈ 1.43 µM) | MIC (Enterococcus faecalis; [6]): 4 µg/mL (≈ 11.4 µM) | MIC (Escherichia coli strains; E. coli NR 6): 2 µg/mL (≈ 5.72 µM) | MIC (Escherichia coli strains; E. coli NR 8): 4 µg/mL (≈ 11.4 µM) | MIC (Escherichia coli strains; E. coli NR 96): 4 µg/mL (≈ 11.4 µM) | MIC (Escherichia coli strains; E. coli NR 104): 4 µg/mL (≈ 11.4 µM) | MIC (Escherichia coli strains; E. coli NR 17626): 4 µg/mL (≈ 11.4 µM) | MIC (Escherichia coli strains; E. coli NR 17627): 4 µg/mL (≈ 11.4 µM) | MIC (Escherichia coli strains; E. coli NR 17633): 4 µg/mL (≈ 11.4 µM) | MIC (Escherichia coli strains; E. coli NR 17647): 4 µg/mL (≈ 11.4 µM) | MIC (Escherichia coli strains; E. coli NR 17650): 4 µg/mL (≈ 11.4 µM) | MIC (Escherichia coli strains; E. coli NR 17661): > 32 µg/mL | MIC (Escherichia coli strains; Escherichia coli strain NR 6): 2 µg/mL (≈ 5.72 µM) | MIC (Escherichia coli strains; Escherichia coli strain NR 8): 4 µg/mL (≈ 11.4 µM) | MIC (Escherichia coli strains; Escherichia coli strain NR 96): 4 µg/mL (≈ 11.4 µM) | MIC (Escherichia coli strains; Escherichia coli strain NR 104): 4 µg/mL (≈ 11.4 µM) | MIC (Escherichia coli strains; [7]): 4 µg/mL (≈ 11.4 µM) | MIC (Escherichia coli strains; [8]): 4 µg/mL (≈ 11.4 µM) | MIC (Escherichia coli strains; [9]): 4 µg/mL (≈ 11.4 µM) | MIC (Escherichia coli strains; [10]): 4 µg/mL (≈ 11.4 µM) | MIC (Escherichia coli strains; [11]): 4 µg/mL (≈ 11.4 µM) | MIC (Escherichia coli strains; [12]): > 32 µg/mL | MIC [1, 13]: > 32 µg/mL | MIC [1, 14]: > 32 µg/mL | MIC [1, 15]: 8 µg/mL (≈ 22.9 µM) | MIC [1, 16]: 16 µg/mL (≈ 45.8 µM) | MIC [1, 17]: 32 µg/mL (≈ 91.6 µM) | MIC [1, 18]: > 32 µg/mL | MIC [1, 19]: 32 µg/mL (≈ 91.6 µM) | MIC [1, 20]: > 32 µg/mL | MIC [1, 21]: 2 µg/mL (≈ 5.72 µM) | MIC [1, 22]: > 32 µg/mL | MIC [1, 23]: > 32 µg/mL | MIC [1, 24]: > 32 µg/mL | MIC [1, 25]: 8 µg/mL (≈ 22.9 µM) | MIC [1, 26]: 16 µg/mL (≈ 45.8 µM) | MIC [1, 27]: 32 µg/mL (≈ 91.6 µM) | MIC [1, 28]: > 32 µg/mL | MIC [1, 29]: 32 µg/mL (≈ 91.6 µM) | MIC [1, 30]: > 32 µg/mL | MIC [1, 31]: 2 µg/mL (≈ 5.72 µM) | MIC [1, 32]: > 32 µg/mL
SMILES: CC1(C)S[C@@H]2[C@H](NC(=O)[C@H](N)c3ccccc3)C(=O)N2[C@H]1C(=O)O [AMP, ampicillin]

MIC (Enterococci faecium; E. faecium NR 31903): > 32 µg/mL | MIC (Enterococci faecium; E. faecium NR 31909): > 32 µg/mL | MIC (Enterococci faecium; E. faecium NR 31912): > 32 µg/mL | MIC (Enterococci faecium; E. faecium NR 31915): > 32 µg/mL | MIC (Enterococci faecium; E. faecium NR 31916): > 32 µg/mL | MIC (Enterococcus faecalis; [2]): > 32 µg/mL | MIC (Enterococcus faecalis; [3]): > 32 µg/mL | MIC (Enterococcus faecalis; [4]): > 32 µg/mL | MIC (Enterococcus faecalis; [5]): > 32 µg/mL | MIC (Enterococcus faecalis; [6]): > 32 µg/mL | MIC (Escherichia coli strains; E. coli NR 6): 4 µg/mL (≈ 6.83 µM) | MIC (Escherichia coli strains; E. coli NR 8): 4 µg/mL (≈ 6.83 µM) | MIC (Escherichia coli strains; E. coli NR 96): 8 µg/mL (≈ 13.7 µM) | MIC (Escherichia coli strains; E. coli NR 104): 2 µg/mL (≈ 3.42 µM) | MIC (Escherichia coli strains; E. coli NR 17626): 16 µg/mL (≈ 27.3 µM) | MIC (Escherichia coli strains; E. coli NR 17627): 8 µg/mL (≈ 13.7 µM) | MIC (Escherichia coli strains; E. coli NR 17633): 8 µg/mL (≈ 13.7 µM) | MIC (Escherichia coli strains; E. coli NR 17647): 2 µg/mL (≈ 3.42 µM) | MIC (Escherichia coli strains; E. coli NR 17650): 8 µg/mL (≈ 13.7 µM) | MIC (Escherichia coli strains; E. coli NR 17661): 2 µg/mL (≈ 3.42 µM) | MIC (Escherichia coli strains; Escherichia coli strain NR 6): 4 µg/mL (≈ 6.83 µM) | MIC (Escherichia coli strains; Escherichia coli strain NR 8): 4 µg/mL (≈ 6.83 µM) | MIC (Escherichia coli strains; Escherichia coli strain NR 96): 8 µg/mL (≈ 13.7 µM) | MIC (Escherichia coli strains; Escherichia coli strain NR 104): 2 µg/mL (≈ 3.42 µM) | MIC (Escherichia coli strains; [7]): 16 µg/mL (≈ 27.3 µM) | MIC (Escherichia coli strains; [8]): 8 µg/mL (≈ 13.7 µM) | MIC (Escherichia coli strains; [9]): 8 µg/mL (≈ 13.7 µM) | MIC (Escherichia coli strains; [10]): 2 µg/mL (≈ 3.42 µM) | MIC (Escherichia coli strains; [11]): 8 µg/mL (≈ 13.7 µM) | MIC (Escherichia coli strains; [12]): 2 µg/mL (≈ 3.42 µM) | MIC [1, 13]: 2 µg/mL (≈ 3.42 µM) | MIC [1, 14]: 32 µg/mL (≈ 54.6 µM) | MIC [1, 15]: > 32 µg/mL | MIC [1, 16]: > 32 µg/mL | MIC [1, 17]: 4 µg/mL (≈ 6.83 µM) | MIC [1, 18]: 32 µg/mL (≈ 54.6 µM) | MIC [1, 19]: > 32 µg/mL | MIC [1, 20]: > 32 µg/mL | MIC [1, 21]: 32 µg/mL (≈ 54.6 µM) | MIC [1, 22]: > 32 µg/mL | MIC [1, 23]: 2 µg/mL (≈ 3.42 µM) | MIC [1, 24]: 32 µg/mL (≈ 54.6 µM) | MIC [1, 25]: > 32 µg/mL | MIC [1, 26]: > 32 µg/mL | MIC [1, 27]: 4 µg/mL (≈ 6.83 µM) | MIC [1, 28]: 32 µg/mL (≈ 54.6 µM) | MIC [1, 29]: > 32 µg/mL | MIC [1, 30]: > 32 µg/mL | MIC [1, 31]: 32 µg/mL (≈ 54.6 µM) | MIC [1, 32]: > 32 µg/mL
SMILES: NCC[C@H](O)C(=O)N[C@@H]1C[C@H](N)[C@@H](O[C@H]2O[C@H](CN)[C@@H](O)[C@H](O)[C@H]2O)[C@H](O)[C@H]1O[C@H]1O[C@H](CO)[C@@H](O)[C@H](N)[C@H]1O [AMK, amikacin]
